The subject of assay [1] is A.D.P.-induced blood-platelet aggregation. Nature of the assay: A.D.P.-induced blood-platelet aggregation after oral treatment of rats. The format is in vivo, Wistar rats. As to conditions: Rattus norvegicus, 100 mg/kg oral, 3 hrs after treatment, 10 μM A.D.P. solution, read-out: Percent inhibition of blood-platelet aggregation, A.D.P. How it is done: (§1) Blood is taken from the jugular vein of Wistar rats. From this citrated blood, and after centrifugation, a plasma containing 600,000±20,000 blood-platelets per mm 3 is reconstituted, which plasma is used in all aggregation determinations.
(§2) 0.4 ml plasma is placed in a siliconized tube provided with a magnet bar which is also siliconized. The tube is introduced into an aggregometer connected to an apparatus which records the optical density variations. When light transmission reaches a stable value, 0.5 ml of a solution containing 10 μM A.D.P. (adenosine diphosphate) is introduced into the tube.
Blood-platelet aggregation then induces an increase of light transmission, followed by a decrease subsequent to the disaggregation stage.
The maximal optical density variation thus determined characterizes the extent of the aggregation.
(§3) Different groups of 20 rats each are used. Each group is orally administered a test derivative, at a dosage of 100 mg/kg. The results obtained during both tests are reported in following Table I which indicates the percent inhibition of blood-platelet aggregation obtained with respect to the reference group, 3 hrs after treatment.

For assay [2], the system named is collagen-induced blood-platelet aggregation. Nature of the assay: Collagen-induced blood-platelet aggregation after oral treatment of rats. It is filed as in vivo, Wistar rats. Conditions: Rattus norvegicus, 100 mg/kg oral, 3 hrs after treatment, collagen (bovine tendon extract), read-out: Percent inhibition of blood-platelet aggregation, Collagen. Here is the method:
as §1, §2
The A.D.P. solution is substituted with a collagen solution (bovine tendon extract).
as §3

For another assay, the system named is mouse. Description: Antalgic action, mechanical stimulation method according to Haffner. The format is in vivo. Conditions: 100 mg/kg oral. How it is done: (a) Mechanical stimulation method according to Haffner (Deutsch. Wish., 1959, 55, 731-733). This method comprises placing a pressure forceps at the base of the tail of a mouse and recording the number of bites self-inflicted by the animal in its endeavour to remove the forceps. The decrease of the number of bites prior and subsequent to oral administration of the test compound at a dosage of 100 mg/kg provides a measure of the antalgic activity of the derivatives of this invention.

The next assay deals with mice. Nature of the assay: Antalgic action, acetic acid method according to Koster, Anderson & de Beer. It is filed as in vivo. As to conditions: 100 mg/kg oral, 30 minutes prior to i.p. acetic acid. An excerpt:
(b) Acetic acid method, according to Koster, Anderson & de Beer (Fed. Proced., 18, 1959, 412, 1, 626)
Intraperitoneal injection of a dilute acetic acid solution induces, in mice, characteristic writhing movements which are repeated due to the effect of pain.

In assay [3] the test system is carrageenin-induced edema. Description: Localized carrageenin-induced edema method. It is filed as in vivo. Conditions: rats, 100 mg/kg oral one hour before, with, and 1 and 2.5 hours after carrageenin. Here is the method: 0.1 ml of a 1% carrageenin solution is injected at time O in the metatarsal flexor muscles of the right hind limb of rats.
The animals of the treated group are additionally orally administered 100 mg/kg of the test derivative, respectively one hour prior to, and then simultaneously with the phlogogenic agent, and then one hour and 2.5 hours thereafter. The determinations effected with a ROCH micrometer at times 0, 1 hr, 2 hrs, 3 hrs and 5 hrs after carrageenin administration make it possible to determine the percent anti-inflammatory activity, as a function of time.

The subject of assay [4] is ovalbumin-induced systemic edema. Nature of the assay: Ovalbumin-induced systemic edema method. As to conditions: rats, 100 mg/kg oral one hour before and with ovalbumin. It is filed as in vivo. Here is the method: Rats are administered a simultaneous intraperitoneal injection of 1 ml ovalbumin and 0.5 ml of a 1% aqueous Evans Blue solution. The animals of the treated group are additionally orally administered 100 mg/kg of the test derivative, one hour prior to ovalbumin administration and then simultaneously with said ovalbumin administration. The intensity of the phenomenon thus induced is rated according to a scale from 1 to 5, according to the progress of the inflammatory syndrome. The determinations are effected after 2 hours and after 3 hours. Thus are determined the mean intensity of the edema and the percent decrease of the edema reaction.

Assay [5] concerns Red blood cells. Nature of the assay: Anti-sludge in vitro, "preventive" treatment (protamine sulfate agglomeration of red blood cells). The format is cell-based, rats. Conditions: for percent agglomerates formed by 5 RBC: controls 6 or 8; for percent agglomerates formed by 4 RBC: controls 9 or 8; for percent agglomerates formed by 3 RBC: controls 13 or 14; for percent agglomerates formed by 2 RBC: controls 17 or 16; for percent free red blood cells (size 1): controls 32 (n°3, 4, 6) or 30 (n°11, 12, 17). Here is the method: (§4) Red blood cells of rats are washed three times and diluted to 1/250 concentration in physiological saline. In each of 5 tubes are placed 0.6 ml of this suspension and 0.2 ml physiological saline. Into each tube is then added, respectively, an amount of 0, 25, 50, 100 and 200 μg of the test derivative contained in 0.2 ml of solution. After incubation for one hour at 37° C., 0.2 ml of a solution containing 125 μg/ml protamine sulfate is added thereto, and the resulting material is further incubated for 0.5 hour at 37° C. The red blood cells of each tube are then examined with a Mallasez cell, and the percent free red blood cells (RBC) and the percent agglomerates formed by 2, 3, 4, 5 . . . RBC are noted.

In assay [6] the test system is Red blood cells. Description: Anti-sludge in vitro, "curative" procedure (protamine sulfate agglomeration of red blood cells). The format is cell-based, rats. As to conditions: 25 μg. Here is the method: as §4
The test was repeated according to a "curative" procedure. The red blood cells were first contacted with the protamine sulfate and, after incubation for 0.5 hour, 0.2 ml containing 25 μg of the test derivative were added thereto, after which the material was further incubated for one hour at 37° C.

`O=C1c2ccsc2CCN1Cc1ccccc1` [Derivative n°2, 4-Oxo-5-benzyl-4,5,6,7-tetrahydro-thieno[3,2-c]pyridine]: the inhibition at 100 mg/kg in assay [1] worked out at 61.5%. In assay [2], the inhibition at 100 mg/kg stood at 91.2%. In addition, in the assay with mouse, the “mean percent antalgia after 30 min.” value is given as 71%, the “mean percent antalgia after 1 hr” value is listed as 65%, the “mean percent antalgia after 2 hrs” value is given as 58% and the “mean percent antalgia after 3 hrs” value worked out at 51%. The compound also registered a percent antalgia with mice of 68%. Further, in assay [3], the “Percent anti-inflammatory activity after 1 hour” value is on record as 36%, the “Percent anti-inflammatory activity after 2 hours” value worked out at 47% and the “Percent anti-inflammatory activity After 3 hours” value turned out to be 53%. For the same compound, in assay [4], the “Percent decrease of the edema reaction After 2 hours” value was found to be 42% and the “Percent decrease of the edema reaction After 3 hours” value is recorded as 50%.

`CC(=O)N1CCc2sccc2C1=O` [Derivative n°5, 4-Oxo-5-acetyl-4,5,6,7-tetrahydro-thieno[3,2-c]pyridine]: in assay [1], the inhibition at 100 mg/kg stood at 63.2%. Also, the inhibition at 100 mg/kg in assay [2] is 92.6%. Further, in the assay on mouse, the “mean percent antalgia after 30 min.” value was found to be 66%, the “mean percent antalgia after 1 hr” value amounted to 60%, the “mean percent antalgia after 2 hrs” value came out at 54% and the “mean percent antalgia after 3 hrs” value is reported as 48%. In addition, the percent antalgia in the assay on mice came out at 64%. Moreover, in assay [3], the “Percent anti-inflammatory activity after 1 hour” value is listed as 39%, the “Percent anti-inflammatory activity after 2 hours” value is 51% and the “Percent anti-inflammatory activity After 3 hours” value turned out to be 55%. In assay [4], the “Percent decrease of the edema reaction After 2 hours” value is 38% and the “Percent decrease of the edema reaction After 3 hours” value is given as 47%.

Consider `O=C1NCCc2sccc21` [Derivative n°7, 4-Oxo-4,5,6,7-tetrahydro-thieno[3,2-c]pyridine], for which, in assay [1], the inhibition at 100 mg/kg amounted to 62.3%. For the same compound, the inhibition at 100 mg/kg in assay [2] was determined as 92.6%. Besides, in the assay on mouse, the “mean percent antalgia after 30 min.” value is 78%, the “mean percent antalgia after 1 hr” value worked out at 76%, the “mean percent antalgia after 2 hrs” value was 72% and the “mean percent antalgia after 3 hrs” value is recorded as 64%. This compound showed a percent antalgia with mice of 75%. Moreover, in assay [3], the “Percent anti-inflammatory activity after 1 hour” value was 44%, the “Percent anti-inflammatory activity after 2 hours” value worked out at 55% and the “Percent anti-inflammatory activity After 3 hours” value came to 63%. Moreover, in assay [4], the “Percent decrease of the edema reaction After 2 hours” value turned out to be 51% and the “Percent decrease of the edema reaction After 3 hours” value was found to be 63%.

On to `CC(=O)N1CCc2ccsc2C1=O` [Derivative n°11, 6-Acetyl-7-oxo-4,5,6,7-tetrahydro-thieno[2,3-c]-pyridine], for which the inhibition at 100 mg/kg in assay [1] is 63%. Further, in assay [2], the inhibition at 100 mg/kg was 92.8%. In the assay with Red blood cells [5] (25 μg per tube), the “percent agglomerates formed by 5 RBC” value is recorded as 2%, the “percent agglomerates formed by 4 RBC” value is on record as 2%, the “percent agglomerates formed by 3 RBC” value was found to be 14% and the “percent agglomerates formed by 2 RBC” value was 22%. The “percent free red blood cells (size 1)” value with Red blood cells [5] (25 μg per tube) turned out to be 60%. Besides, in the assay on Red blood cells [5] (50 μg per tube), the “percent agglomerates formed by 5 RBC” value stood at 1%, the “percent agglomerates formed by 4 RBC” value is reported as 2%, the “percent agglomerates formed by 3 RBC” value is on record as 10% and the “percent agglomerates formed by 2 RBC” value is reported as 22%. Moreover, the “percent free red blood cells (size 1)” value in the assay on Red blood cells [5] (50 μg per tube) came to 65%. In the assay with Red blood cells [5] (100 μg per tube), the “percent agglomerates formed by 4 RBC” value is reported as 1%, the “percent agglomerates formed by 3 RBC” value stood at 5%, the “percent agglomerates formed by 2 RBC” value turned out to be 13% and the “percent free red blood cells (size 1)” value worked out at 81%. In the assay with Red blood cells [5] (200 μg per tube), the “percent agglomerates formed by 4 RBC” value amounted to 1%, the “percent agglomerates formed by 3 RBC” value is given as 2%, the “percent agglomerates formed by 2 RBC” value is given as 14% and the “percent free red blood cells (size 1)” value came out at 83%. In addition, the “percent aggregates, size of agglomerates 5” value with Red blood cells [6] (reference tests 8 or 9) is on record as 1%. The “percent aggregates, size of agglomerates 4” value in the assay with Red blood cells [6] (reference tests 11) turned out to be 2%. The “percent aggregates, size of agglomerates 3” value in the assay on Red blood cells [6] (reference tests 15 or 16) worked out at 4%. In addition, the “percent aggregates, size of agglomerates 2” value with Red blood cells [6] (reference tests 19) was 15%. Moreover, the “percent aggregates, size of agglomerates 1” value in the assay on Red blood cells [6] (reference tests 33 (n°3, 4, 6) or 30 (n°11, 12, 17)) is on record as 78%. Also, in the assay with mouse, the “mean percent antalgia after 30 min.” value came out at 65%, the “mean percent antalgia after 1 hr” value amounted to 61%, the “mean percent antalgia after 2 hrs” value turned out to be 57% and the “mean percent antalgia after 3 hrs” value stood at 50%. Besides, the percent antalgia in the assay with mice was determined as 71%. Moreover, in assay [3], the “Percent anti-inflammatory activity after 1 hour” value is reported as 41%, the “Percent anti-inflammatory activity after 2 hours” value was 50% and the “Percent anti-inflammatory activity After 3 hours” value is recorded as 58%. Besides, in assay [4], the “Percent decrease of the edema reaction After 2 hours” value stood at 45% and the “Percent decrease of the edema reaction After 3 hours” value is 55%.

Take `COc1cc(COC(=O)C2Cc3sccc3C(=O)N2Cc2cc(OC)c(OC)c(OC)c2)cc(OC)c1OC` (centres unmarked) [Derivative n°15, 4-Oxo-6-(3,4,5-trimethoxy-benzyloxycarbonyl)-5-(3,4,5-trimethoxybenzyl)-4,5,6,7-tetrahydro-thieno[3,2-c]pyridine]: the inhibition at 100 mg/kg in assay [1] was found to be 61.8%. Moreover, the inhibition at 100 mg/kg in assay [2] stood at 91.6%. Moreover, in the assay on mouse, the “mean percent antalgia after 30 min.” value came to 73%, the “mean percent antalgia after 1 hr” value is reported as 67%, the “mean percent antalgia after 2 hrs” value is on record as 63% and the “mean percent antalgia after 3 hrs” value was determined as 56%. Further, the percent antalgia in the assay on mice amounted to 69%. In assay [3], the “Percent anti-inflammatory activity after 1 hour” value came out at 40%, the “Percent anti-inflammatory activity after 2 hours” value was 52% and the “Percent anti-inflammatory activity After 3 hours” value worked out at 57%. In assay [4], the “Percent decrease of the edema reaction After 2 hours” value was found to be 48% and the “Percent decrease of the edema reaction After 3 hours” value is 58%.

The values are drawn from patent US4193997A, “Thieno[2,3-c] and [3,2-c]pyridines, process for their preparation and therapeutic applications thereof” (Parcor, priority 1977, dated 1980).
